Experiments:
[1] = molecular target: recombinant ROCK2 (amino acids 1-552) (Homo sapiens (Human), UniProt O75116); test: Z'-lyte kinase assay, ROCK2; format: biochemical
Procedure: Determination of compounds ROCK inhibitory activity in vitro (Z'lyte assay): recombinant ROCK1 (amino acids 1-535) and ROCK2 (amino acids 1-552) proteins were purchased from ThermoFisher Scientific. Compounds activities were measured by Z'-lyte kinase kit (ThermoFisher Scientific) and IC50s were calculated.
Compounds activities were measured by Z'-lyte kinase kit (ThermoFisher Scientific). […] IC50s were calculated using the GraphPad Prism software with kinase activities data that were collected from 9 points serial dilution of compounds treatment. The ROCK inhibition in A7R5 cells and NIH3T3 (Acta2-Luc) cells was performed as described above.
The percent inhibition rate was calculated by normalizing the kinase activity value obtained with compound treatment against DMSO control value and then applied to the equation, […]. IC50's were calculated using the nonlinear regression curve fit function of the GraphPad Prism software with kinase activities data measured with 9 points 2-fold serial dilution of compounds treatment.

[2] = test system: ppMlc (T18/S19) levels in A7R5 cells; test: A7R5 in-cell ELISA assay (ppMlc); format: cell-based, rat; conditions: Rattus norvegicus, A7R5, A7R5 cells, Table 2; read-out: pMLC IC50 (nM) A7R5
Procedure: Determination of compounds ROCK inhibitory activity in A7R5 cells: rat aortic smooth muscle cell line A7R5 cells were maintained and treated in DMEM medium with 10% of fetal bovine serum. Cells were seeded with density of 5,000 cells/well in 96-well plates for 24 hours and subsequently treated 90 min with testing compounds. Cells were then fixed and processed according to the In-Cell ELISA Colorimetric Detection Kit manual (Thermo Scientific).
A7R5 cells were treated with 9 points 2 fold serial dilution of compounds and ppMlc (T18/S19) levels were determined in order to calculate the cellular IC50s of the compounds.
An A7R5 in-cell ELISA assay was performed to determine ROCK inhibition of test articles. A7R5 cells were treated with 9 points 2-fold serial dilution of compounds and ppMlc (T18/S19) levels were determined to calculate cellular IC50 values of the compounds. […] A7R5 cells were treated with 9 points 2-fold serial dilution of compounds and ppMlc (T18/S19) levels were determined to calculate cellular IC50 values of the compounds using the nonlinear regression curve fit function of the GraphPad Prism software.

[3] = test system: ACTA2-promoter-driven-luciferase in NIH3T3 cells; test: NIH3T3 Acta2-promoter driven-luciferase assay; format: cell-based; conditions: Mus musculus, plus TGFβ1, 24 hr, read-out: NIH3T3, Acta2-luc, IC50
Procedure: NIH3T3 cells Acta2-promoter driven-luciferase assay: A NIH3T3 cell line stably expressing a luciferase reporter driven by the human ACTA2 gene promoter (−1000-1 bp) was established (NIH3T3-Acta2-luciferase). The cells were plated to confluence and treated with the test compounds plus TGFβ1 for 24 hr. Cells were then lysed and luciferase activity was measured using the LightSwitch luciferase kit from Active Motif.
ROCK inhibitors can be effectively rank ordered by ACTA2-promoter-driven-luciferase reporter cell assay. NIH3T3 cells stably expressing ACTA2-promoter-driven-luciferase were applied to measure ROCK compounds functional IC50's in cells. Cells were plated in 96 well plates to confluence and treated with 9 points serial dilution of compounds in combination with TGFβ1 for 24 hr. Luciferase activities were measured and compound's IC50's were calculated using the nonlinear regression curve fit function of the GraphPad Prism software. Compounds of the invention gave in cell IC50's under 200 nM, see FIG. 1c.

recombinant ROCK2 (amino acids 1-552), sequence (O75116 1-552): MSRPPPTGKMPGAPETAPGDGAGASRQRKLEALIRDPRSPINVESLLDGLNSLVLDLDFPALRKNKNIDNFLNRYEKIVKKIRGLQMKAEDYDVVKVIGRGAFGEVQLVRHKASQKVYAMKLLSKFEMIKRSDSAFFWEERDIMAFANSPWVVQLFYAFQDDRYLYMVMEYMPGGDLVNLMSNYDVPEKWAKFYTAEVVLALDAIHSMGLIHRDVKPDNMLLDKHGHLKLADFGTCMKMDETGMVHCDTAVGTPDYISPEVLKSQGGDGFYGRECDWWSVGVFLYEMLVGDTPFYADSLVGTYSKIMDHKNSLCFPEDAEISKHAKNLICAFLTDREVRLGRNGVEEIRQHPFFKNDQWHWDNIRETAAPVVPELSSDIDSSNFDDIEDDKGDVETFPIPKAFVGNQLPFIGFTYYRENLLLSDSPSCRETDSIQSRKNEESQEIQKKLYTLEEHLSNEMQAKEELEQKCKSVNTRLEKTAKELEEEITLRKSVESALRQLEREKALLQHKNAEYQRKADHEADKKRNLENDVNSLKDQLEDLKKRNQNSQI

| Compound | IC50 [1] | IC50 [2] | inhibition at 0.5 µM ([1]; @ 0.5 μM, read-out: ROCK2 % inh (0.5 μM)) | IC50 [3] |
| --- | --- | --- | --- | --- |
| CNC(=O)c1ccc(C(NC)C(=O)Nc2ccc(-c3cn[nH]c3)cc2)cc1 (stereo not drawn) [Example 69, 4-(2-((4-(1H-pyrazol-4-yl)phenyl)amino)-1-(methylamino)-2-oxoethyl)-N-methylbenzamide] | 400 nM | > 5000 nM | – | > 5000 nM |
| CNC(C(=O)Nc1ccc(-c2cn[nH]c2)cc1)c1ccc2nc(C)[nH]c2c1 (stereo not drawn) [Example 35, N-(4-(1H-pyrazol-4-yl)phenyl)-2-(2-methyl-1H-benzo[d]imidazol-6-yl)-2-(methylamino)acetamide] | 486 nM | > 5000 nM | – | > 5000 nM |
| CNC(C(=O)Nc1ccc(-c2cn[nH]c2)cc1)c1ccc(N(C)C)cc1 (stereo not drawn) [Example 31, N-(4-(1H-pyrazol-4-yl)phenyl)-2-(4-(dimethylamino)phenyl)-2-(methylamino)acetamide] | 55 nM | 667 nM | – | 1230 nM |
| COCCNC(C(=O)Nc1ccc(-c2cn[nH]c2)cc1)c1cccc(OC)c1 (stereo not drawn) [Example 25, N-(4-(1H-pyrazol-4-yl)phenyl)-2-((2-methoxyethyl)amino)-2-(3-methoxyphenyl)acetamide] | 94 nM | 692 nM | – | 663 nM |
| CCN(CCOC)C(C(=O)Nc1ccc(-c2cn[nH]c2)cc1)c1cccc(OC)c1 (stereo not drawn) [Example 46, N-(4-(1H-pyrazol-4-yl)phenyl)-2-(ethyl(2-methoxyethyl)amino)-2-(3-methoxyphenyl)acetamide] | 107 nM | 1880 nM | – | 1200 nM |
| COCCCNC(C(=O)Nc1ccc(-c2cn[nH]c2)cc1)c1cccc(OC)c1 (stereo not drawn) [Example 36, N-(4-(1H-pyrazol-4-yl)phenyl)-2-(3-methoxyphenyl)-2-((3-methoxypropyl)amino)acetamide] | 16 nM | 1580 nM | – | 1550 nM |
| COc1cccc(C(NCC(=O)N(C)C)C(=O)Nc2ccc(-c3cn[nH]c3)cc2)c1 (stereo not drawn) [Example 39, N-(4-(1H-pyrazol-4-yl)phenyl)-2-((2-(dimethylamino)-2-oxoethyl)amino)-2-(3-methoxyphenyl)acetamide] | 16 nM | 1670 nM | – | > 5000 nM |
| CNC(C(=O)Nc1ccc(-c2cn[nH]c2)cc1)c1ccnc(OC)c1 (stereo not drawn) [Example 29, N-(4-(1H-pyrazol-4-yl)phenyl)-2-(2-methoxypyridin-4-yl)-2-(methylamino)acetamide] | 14 nM | 647 nM | – | 146 nM |
| CNC(C(=O)Nc1ccc(-c2cn[nH]c2)cc1)c1ccc(C(=O)O)cc1 (stereo not drawn) [Example 68, 4-(2-((4-(1H-pyrazol-4-yl)phenyl)amino)-1-(methylamino)-2-oxoethyl)benzoic acid] | 451 nM | > 5000 nM | – | > 5000 nM |
| CNC(C(=O)Nc1ccc(-c2cn[nH]c2)cc1)c1ccc2nc(C)sc2c1 (stereo not drawn) [Example 27, N-(4-(1H-pyrazol-4-yl)phenyl)-2-(methylamino)-2-(2-methylbenzo[d]thiazol-6-yl)acetamide] | 65 nM | 1680 nM | – | 699 nM |
| COc1cccc(C(NCc2cn[nH]c2)C(=O)Nc2ccc(-c3cn[nH]c3)cc2)c1 (stereo not drawn) [Example 45, 2-(((1H-pyrazol-4-yl)methyl)amino)-N-(4-(1H-pyrazol-4-yl)phenyl)-2-(3-methoxyphenyl)acetamide] | 53 nM | 1360 nM | – | 1460 nM |

Continued, in another order:

| IC50 [1] | IC50 [2] | inhibition at 0.5 µM ([1]; @ 0.5 μM, read-out: ROCK2 % inh (0.5 μM)) | Compound | IC50 [3] |
| --- | --- | --- | --- | --- |
| 3 nM | 108 nM | – | CN[C@H](C(=O)Nc1ccc(-c2cn[nH]c2)cc1)c1cccc(OC)c1 [Example 4, (S)—N-(4-(1H-pyrazol-4-yl)phenyl)-2-(3-methoxyphenyl)-2-(methylamino)acetamide] | 110 nM |
| 1.6 nM | 15 nM | – | CN[C@H](C(=O)Nc1cc(F)c(-c2cn[nH]c2)cc1OCCN(C)C)c1cccc(OC)c1 [Example 73, (S)—N-(2-(2-(dimethylamino)ethoxy)-5-fluoro-4-(1H-pyrazol-4-yl)phenyl)-2-(3-methoxyphenyl)-2-(methylamino)acetamide] | 122 nM |
| 6.8 nM | 353 nM | – | CNC(C(=O)Nc1ccc(-c2cn[nH]c2)cc1)c1cccc(C)c1 (stereo not drawn) [Example 14, N-(4-(1H-pyrazol-4-yl)phenyl)-2-(methylamino)-2-(m-tolyl)acetamide] | 496 nM |
| 21 nM | 255 nM | – | CCNC(C(=O)Nc1ccc(-c2cn[nH]c2)cc1)c1ccc(OC)cc1 (stereo not drawn) [Example 10, N-(4-(1H-pyrazol-4-yl)phenyl)-2-(ethylamino)-2-(4-methoxyphenyl)acetamide] | 1280 nM |
| 6.3 nM | 425 nM | – | CCNC(C(=O)Nc1ccc(-c2cn[nH]c2)cc1)c1cccc(OC)c1 (stereo not drawn) [Example 13, N-(4-(1H-pyrazol-4-yl)phenyl)-2-(ethylamino)-2-(3-methoxyphenyl)acetamide] | 1570 nM |
| 30 nM | 458 nM | – | CCNC(C(=O)Nc1ccc(-c2cn[nH]c2)cc1)c1ccc(F)cc1 (stereo not drawn) [Example 12, N-(4-(1H-pyrazol-4-yl)phenyl)-2-(ethylamino)-2-(4-fluorophenyl)acetamide] | 735 nM |
| 5.3 nM | 152 nM | – | CNCCNC(C(=O)Nc1ccc(-c2cn[nH]c2)cc1)c1cccc(OC)c1 (stereo not drawn) [Example 26, N-(4-(1H-pyrazol-4-yl)phenyl)-2-(3-methoxyphenyl)-2-((2-(methylamino)ethyl)amino)acetamide] | 251 nM |
| 1.2 nM | 65 nM | – | CN[C@@H](C(=O)Nc1ccc(-c2cn[nH]c2)cc1)c1ccc(Cl)cc1 [Example 65, (R)—N-(4-(1H-pyrazol-4-yl)phenyl)-2-(4-chlorophenyl)-2-(methylamino)acetamide] | 51 nM |
| 67 nM | 314 nM | – | COCCNC(C(=O)Nc1cc(F)c(-c2cn[nH]c2)cc1OCCN(C)C)c1cccc(OC)c1 (stereo not drawn) [Example 48, N-(2-(2-(dimethylamino)ethoxy)-5-fluoro-4-(1H-pyrazol-4-yl)phenyl)-2-((2-methoxyethyl)amino)-2-(3-methoxyphenyl)acetamide] | 1010 nM |
| 4 nM | 69 nM | – | CCNC(C(=O)Nc1ccc(-c2cn[nH]c2)cc1)c1ccc(C)cc1 (stereo not drawn) [Example 11, N-(4-(1H-pyrazol-4-yl)phenyl)-2-(ethylamino)-2-(p-tolyl)acetamide] | 106 nM |
| 18 nM | 247 nM | – | CNC(C(=O)Nc1ccc(-c2cn[nH]c2)cc1)c1cccc(C(=O)OC)c1 (stereo not drawn) [Example 30, Methyl 3-(2-((4-(1H-pyrazol-4-yl)phenyl)amino)-1-(methylamino)-2-oxoethyl)benzoate] | > 5000 nM |
| – | 435 nM | 91% | CNC(C(=O)Nc1ccc(-c2cn[nH]c2)cc1)c1ccc(OC)c(F)c1 (stereo not drawn) [Example 23, N-(4-(1H-pyrazol-4-yl)phenyl)-2-(3-fluoro-4-methoxyphenyl)-2-(methylamino)acetamide] | 252 nM |
| 45 nM | 632 nM | – | COc1cccc(C(NCCOC(C)C)C(=O)Nc2ccc(-c3cn[nH]c3)cc2)c1 (stereo not drawn) [Example 40, N-(4-(1H-pyrazol-4-yl)phenyl)-2-((2-isopropoxyethyl)amino)-2-(3-methoxyphenyl)acetamide] | 826 nM |
| 3.5 nM | 292 nM | – | CCNC(C(=O)Nc1ccc(-c2cn[nH]c2)cc1)c1cccc(Cl)c1 (stereo not drawn) [Example 16, N-(4-(1H-pyrazol-4-yl)phenyl)-2-(3-chlorophenyl)-2-(ethylamino)acetamide] | 376 nM |
| 8.1 nM | 54 nM | – | COCCN(C)C(C(=O)Nc1cc(F)c(-c2cn[nH]c2)cc1OCCN(C)C)c1cccc(OC)c1 (stereo not drawn) [Example 51, N-(2-(2-(dimethylamino)ethoxy)-5-fluoro-4-(1H-pyrazol-4-yl)phenyl)-2-((2-methoxyethyl)(methyl)amino)-2-(3-methoxyphenyl)acetamide] | 101 nM |

— patent US11479533B2, “Inhibitors of Rho associated coiled-coil containing protein kinase” (KADMON CORPORATION, LLC, priority 2017, dated 2022)
